Molecular target: T1, DPP-IV (Homo sapiens, UniProt P27487)
T1 construct: an extract of the human colon carcinoma cell line Caco-2 is used as the DPP IV source; endogenous in cells; host or cells: Caco-2 (human colon carcinoma), differentiated to induce DPP-IV expression; extract solubilized with Nonidet-P40
Test: DPP-IV assay with Caco-2 cell extract as DPP IV source
Format: biochemical
Conditions: extract of human colon carcinoma cell line Caco-2; AFC substrate 100 μM; 60 minutes, ambient temperature; 11-point curves; read-out: DPP IV inhibition IC50
Experimental: The differentiation of the cells in order to induce the DPP-IV expression was carried out in accordance with the description by Reiher et al. in an article entitled “Increased expression of intestinal cell line Caco-2” that appeared in Proc. Natl. Acad. Sci. Vol. 90, pp. 5757-5761 (1993). The cell extract was obtained from cells solubilized in a buffer (10 mM Tris HCl, 0.15 M NaCl, 0.04 t.i.u. aprotinin, 0.5% Nonidet-P40, pH 8.0) by centrifugation at 35,000 g for 30 minutes at 4° C. (to remove cell debris).
The DPP-IV assay was carried out as follows:
50 μl of substrate solution (AFC; AFC is amido-4-trifluoromethylcoumarin), final concentration 100 μM, was placed in black microtitre plates. 20 μl of assay buffer (final concentrations 50 mM Tris HCl pH 7.8, 50 mM NaCl, 1% DMSO) was pipetted therein. The reaction was started by the addition of 30 μl of solubilized Caco-2 protein (final concentration 0.14 μg of protein per well). The test substances under investigation were typically added prediluted to 20 μl, while the volume of assay buffer was then reduced accordingly. The reaction was carried out at ambient temperature, the incubation period was 60 minutes. Then the fluorescence was measured in a Victor 1420 Multilabel Counter, with the excitation wavelength at 405 nm and the emission wavelength at 535 nm. Dummy values (corresponding to 0% activity) were obtained in mixtures with no Caco-2 protein (volume replaced by assay buffer), control values (corresponding to 100% activity) were obtained in mixtures without any added substance. The potency of the test substances in question, expressed as IC50 values, were calculated from dosage/activity curves consisting of 11 measured points in each case.

T1 sequence (P27487 whole entry): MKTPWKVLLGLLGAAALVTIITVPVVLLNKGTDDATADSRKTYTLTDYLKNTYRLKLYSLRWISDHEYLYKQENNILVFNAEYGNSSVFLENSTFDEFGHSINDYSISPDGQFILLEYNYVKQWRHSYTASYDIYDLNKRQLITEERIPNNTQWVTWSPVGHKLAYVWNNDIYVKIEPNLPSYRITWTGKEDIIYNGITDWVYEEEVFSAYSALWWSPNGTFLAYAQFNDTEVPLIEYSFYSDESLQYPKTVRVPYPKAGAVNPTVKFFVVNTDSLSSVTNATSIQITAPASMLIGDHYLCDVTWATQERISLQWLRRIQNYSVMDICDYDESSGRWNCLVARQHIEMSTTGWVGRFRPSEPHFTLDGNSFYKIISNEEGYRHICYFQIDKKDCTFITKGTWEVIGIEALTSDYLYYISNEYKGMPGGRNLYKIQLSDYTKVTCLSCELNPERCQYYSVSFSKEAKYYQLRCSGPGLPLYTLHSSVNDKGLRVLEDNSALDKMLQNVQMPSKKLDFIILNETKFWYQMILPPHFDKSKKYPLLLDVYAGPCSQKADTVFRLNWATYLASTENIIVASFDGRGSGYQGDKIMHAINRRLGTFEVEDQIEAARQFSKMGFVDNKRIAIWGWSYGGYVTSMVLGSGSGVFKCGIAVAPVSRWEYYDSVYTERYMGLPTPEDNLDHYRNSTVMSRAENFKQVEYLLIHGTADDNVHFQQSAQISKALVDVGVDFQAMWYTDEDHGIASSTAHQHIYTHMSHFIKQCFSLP

Row | SMILES | IC50
1 | CC#CCn1c(N2CCC[C@@H](N)C2)nc2c(=O)n(C)n(Cc3ccc4ccccc4n3)c(=O)c21 [1(1), (R)-1-(but-2-ynyl)-2-(3-amino-piperidin-1-yl)-5-methyl-6-(quinolin-2-ylmethyl)-5,6-dihydro-1H-imidazo[4,5-d]pyridazine-4,7-dione×2 trifluoroacetic acid] | 4 nM
2 | CC#CCn1c(N2CCC[C@@H](N)C2)nc2c(=O)n(CC#N)n(Cc3ccc4ccccc4n3)c(=O)c21 [Example 1, (R)-1-(but-2-ynyl)-2-(3-amino-piperidin-1-yl)-5-cyanomethyl-6-(quinolin-2-ylmethyl)-5,6-dihydro-1H-imidazo[4,5-d]pyridazine-4,7-dione×2 trifluoroacetic acid] | 1 nM

Other lines, results leading:

Row | IC50 | SMILES
3 | 14 nM | CC#CCn1c(N2CCC[C@@H](N)C2)nc2c(=O)n(Cc3ccccc3)n(Cc3ccc4ccccc4n3)c(=O)c21 [1(3), (R)-1-(but-2-ynyl)-2-(3-amino-piperidin-1-yl)-5-(phenylmethyl)-6-(quinolin-2-ylmethyl)-5,6-dihydro-1H-imidazo[4,5-d]pyridazine-4,7-dione×2 trifluoroacetic acid]
4 | 52 nM | CC#CCn1c(N2CCC[C@@H](N)C2)nc2c(=O)n(C)n(Cc3cccc4ccccc34)c(=O)c21 [1(4), (R)-1-(but-2-ynyl)-2-(3-amino-piperidin-1-yl)-5-methyl-6-(naphth-1-ylmethyl)-5,6-dihydro-1H-imidazo[4,5-d]pyridazine-4,7-dione×1 trifluoroacetic acid]
5 | 6 nM | C=CCn1c(=O)c2nc(N3CCC[C@@H](N)C3)n(CC#CC)c2c(=O)n1Cc1ccc2ccccc2n1 [1(2), (R)-1-(but-2-ynyl)-2-(3-amino-piperidin-1-yl)-5-(prop-2-enyl)-6-(quinolin-2-ylmethyl)-5,6-dihydro-1H-imidazo[4,5-d]pyridazine-4,7-dione×2 trifluoroacetic acid]
